Reference: ChEMBL document CHEMBL1201862, “PubChem BioAssay data set” (2004)
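Exposure lasted 48 hours, with cells grown in 96-well plates and compounds tested at five concentrations. Abbreviation: GI50, concentration required for 50% inhibition of growth.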 Activity calls are given as the source filed them. No stated cut-off is given here; in the data, active = GI50 up to about 1.1 µM and inactive = higher.

Tests used:
Experiment in all cases: NCI anticancer screen, dose series, 48 h
[1] = tested on: SNB-75
[2] = tested on: OVCAR-8
[3] = tested on: TK-10
[4] = tested on: NCI-H460
[5] = tested on: SK-MEL-5
[6] = tested on: 786-0
[7] = tested on: SK-MEL-28
[8] = tested on: HCT-116
[9] = tested on: UO-31
[10] = tested on: CAKI-1
[11] = tested on: U-251
[12] = tested on: NCI-H23
[13] = tested on: SN12C
[14] = tested on: RPMI-8226
[15] = tested on: SR
[16] = tested on: UACC-257
[17] = tested on: SF-539
[18] = tested on: HCC 2998
[19] = tested on: A498

Measured: GI50

CC1=CC(=O)N2[C@H](OC[C@@H]2C(C)C)O1
inactive: [1] > 100 µM | [2] > 100 µM | [3] > 100 µM | [4] > 100 µM | [5] > 100 µM | [6] > 100 µM | [7] > 100 µM | [8] > 100 µM | [9] > 100 µM | [10] > 100 µM | [11] > 100 µM | [12] > 100 µM | [13] > 100 µM | [14] > 100 µM | [15] > 100 µM | [16] > 100 µM | [17] > 100 µM

Nc1cc(-c2ccccc2)nn1-c1nsc2ccccc12
inactive: [1] 19.7 µM | [2] 92.9 µM | [18] > 100 µM | [3] > 100 µM | [4] 60.8 µM | [5] > 100 µM | [7] 98.4 µM | [8] 73.3 µM | [9] > 100 µM | [11] 54.2 µM | [12] > 100 µM | [13] 99.8 µM | [14] 76.9 µM | [15] 53.2 µM | [16] > 100 µM | [17] > 100 µM

Cc1ccc(N2C(=O)/C(=C/c3ccc(N(CCC#N)CCC#N)cc3)N=C2COc2ccc(Cl)cc2Cl)cc1
inactive: [1] > 100 µM | [2] > 100 µM | [3] > 100 µM | [4] > 100 µM | [5] > 100 µM | [6] > 100 µM | [7] > 100 µM | [8] > 100 µM | [9] > 100 µM | [10] > 100 µM | [11] > 100 µM | [12] > 100 µM | [13] > 100 µM | [14] > 100 µM | [15] > 100 µM | [16] > 100 µM | [17] > 100 µM

Oc1cc(O)cc(/C=C/c2ccc(O)c(O)c2)c1 [PICEATANNOL]
inactive: [19] 40.9 µM | [1] 14.1 µM | [2] 24.2 µM | [18] 16.7 µM | [4] 22.2 µM | [5] 11.1 µM | [7] 49.9 µM | [8] 7.45 µM | [9] 10.4 µM | [10] 4.35 µM | [11] 15.4 µM | [12] 17.3 µM | [13] 12.4 µM | [14] 10.3 µM | [16] > 76.6 µM | [17] 8.91 µM

O=C(CBr)c1ccc2cc(Br)c3ccccc3c2c1
inactive: [1] 25.6 µM | [2] 24.2 µM | [18] 54.2 µM | [3] 21 µM | [4] 23 µM | [5] 14.3 µM | [6] 37.6 µM | [7] 25.1 µM | [8] 40.3 µM | [9] 25.6 µM | [10] 18.2 µM | [11] 46.3 µM | [12] 14.7 µM | [14] 20.3 µM | [15] 12.1 µM | [16] 24 µM | [17] 20.9 µM

O=C1OC(c2ccccc2)=N/C1=C\c1c(O)cc(O)cc1O
inactive: [19] > 100 µM | [1] > 100 µM | [2] > 100 µM | [3] > 100 µM | [5] > 100 µM | [6] > 100 µM | [7] > 100 µM | [8] 96.6 µM | [9] > 100 µM | [10] > 100 µM | [11] > 100 µM | [12] > 100 µM | [13] > 100 µM | [14] > 100 µM | [16] > 100 µM | [17] > 100 µM

N#CC1(C#N)C(c2ccc(C3C(C#N)(C#N)C3(C#N)C#N)cc2)C1(C#N)C#N
inactive: [1] > 100 µM | [2] > 100 µM | [18] > 100 µM | [3] > 100 µM | [4] > 100 µM | [5] > 100 µM | [6] > 100 µM | [7] > 100 µM | [9] > 100 µM | [10] > 100 µM | [11] > 100 µM | [12] > 100 µM | [13] > 100 µM | [14] > 100 µM | [16] > 100 µM | [17] > 100 µM

Oc1cc(Cl)ncn1
inactive: [19] > 100 µM | [1] > 100 µM | [2] > 100 µM | [18] > 100 µM | [3] > 100 µM | [4] > 100 µM | [5] > 100 µM | [6] > 100 µM | [7] > 100 µM | [8] > 100 µM | [9] > 100 µM | [10] > 100 µM | [11] > 100 µM | [12] > 100 µM | [13] > 100 µM | [14] > 100 µM | [16] > 100 µM

CC1(C)Cc2c(C#N)c(N)c3c(c2CO1)C(=O)OC3=O
inactive: [2] > 100 µM | [18] > 100 µM | [3] > 100 µM | [4] > 100 µM | [5] > 100 µM | [7] > 100 µM | [8] > 100 µM | [9] > 100 µM | [10] > 100 µM | [11] > 100 µM | [12] > 100 µM | [13] > 100 µM | [14] > 100 µM | [15] > 100 µM | [17] > 100 µM

O=[N+]([O-])c1ccc2nc(/C(=N\Nc3ccccc3)C(O)c3ccc4c(c3)OCO4)c(O)nc2c1 (centres undefined)
inactive: [1] 60 µM | [2] > 100 µM | [18] 75.2 µM | [3] > 100 µM | [4] > 100 µM | [5] > 100 µM | [6] > 100 µM | [7] > 100 µM | [8] > 100 µM | [9] 79.3 µM | [11] > 100 µM | [12] > 100 µM | [13] > 100 µM | [14] 86.1 µM | [15] 91.6 µM | [16] > 100 µM | [17] > 100 µM

CNC(=O)CN1CC(=O)N(C)C(=O)C1
inactive: [1] > 100 µM | [18] > 100 µM | [3] > 100 µM | [5] > 100 µM | [7] > 100 µM | [9] > 100 µM | [10] > 100 µM | [11] > 100 µM | [12] > 100 µM | [14] > 100 µM | [15] > 100 µM

O=C1CCC(=O)C(C(=O)CCC(=O)Nc2ccc(Cl)cc2)C1 (centres undefined)
inactive: [19] > 100 µM | [2] > 100 µM | [18] > 100 µM | [3] > 100 µM | [4] > 100 µM | [5] > 100 µM | [6] > 100 µM | [8] > 100 µM | [9] > 100 µM | [10] > 100 µM | [11] > 100 µM | [12] > 100 µM | [13] > 100 µM | [14] > 100 µM | [16] > 100 µM | [17] > 100 µM

O=C1C=C2SC3C[C@@]24CC1[N+]1=c2c4c(c(O)c4c2=C(C=N4)CC1)N3
inactive: [19] 5.31 µM | [1] 4.61 µM | [2] 2.03 µM | [18] 2.74 µM | [4] 3.2 µM | [5] 1.88 µM | [7] 1.94 µM | [8] 1.81 µM | [9] 16.6 µM | [10] 2.62 µM | [11] 1.9 µM | [13] 2.67 µM | [14] 2.08 µM | [16] 1.7 µM | [17] 1.9 µM

CC(C)CCS(=O)(=O)OCCCCOS(=O)(=O)CCC(C)C
inactive: [1] > 100 µM | [2] > 100 µM | [18] > 100 µM | [3] > 100 µM | [4] > 100 µM | [6] > 100 µM | [7] > 100 µM | [8] > 100 µM | [9] > 100 µM | [11] > 100 µM | [12] > 100 µM | [13] > 100 µM | [14] > 100 µM | [15] > 100 µM | [16] > 100 µM | [17] > 100 µM

COc1cc2c(cc1OC)C(C(c1ccccc1)c1ccccc1)N(C)CC2 (centres undefined)
active: [10] 0.617 µM
inactive: [19] > 100 µM | [1] 49.1 µM | [2] > 100 µM | [18] 26.3 µM | [4] > 89.1 µM | [5] 21 µM | [7] > 79.3 µM | [8] > 58.6 µM | [9] > 63.7 µM | [11] 61.9 µM | [12] > 100 µM | [13] > 100 µM | [14] 36.6 µM | [16] 32.9 µM | [17] > 100 µM

CCOC(=O)c1nc2ccc([N+](=O)[O-])cc2c2c1CCO2
inactive: [19] > 100 µM | [1] 41.3 µM | [2] > 100 µM | [18] > 100 µM | [3] > 100 µM | [4] > 100 µM | [5] > 100 µM | [6] > 100 µM | [7] > 100 µM | [8] > 100 µM | [10] > 100 µM | [11] > 100 µM | [12] > 100 µM | [13] > 100 µM | [16] > 100 µM | [17] > 100 µM

O=C(O)CCC(NC(=O)c1ccc(Nc2nc3cc(C(F)(F)F)ccc3nc2-c2ccccc2)cc1)C(=O)O (centres undefined)
inactive: [19] > 100 µM | [1] > 79.6 µM | [2] > 100 µM | [18] 66.5 µM | [4] 43.3 µM | [5] > 100 µM | [7] > 100 µM | [8] 71 µM | [9] > 94.6 µM | [11] 67.1 µM | [12] > 100 µM | [13] > 100 µM | [14] > 63.1 µM | [16] > 100 µM | [17] > 84.7 µM
